Common to all, as to assay type: cell-based
Test [1] deals with PCI-35 cells, KMP-4 cells, and PCI-43 cells. Put plainly: FACS analysis of apoptosis (PI / anti-anexin V staining) under hypoxia and normoxia, three pancreatic cancer cell lines. Particulars: 50 μg/mL cisplatin, six hours, PCI-35, KMP-4 and PCI-43 cells. As for the experimental part: (§1) The sensitivity of solid cancer cells to anticancer agents under low and normal oxygen partial pressures was investigated. Three types of solid pancreatic cancer cell lines (PCI-35 cells, KMP-4 cells, and PCI-43 cells) were used as the cells. For each type of cell, 2×10^3 cells were cultured for six hours in the presence of 50 μg/mL of cisplatin under low oxygen partial pressure (1% oxygen, 5% carbondioxide; hereinafter, the same values in the Examples) or normal oxygen partial pressure (20% oxygen, 5% carbondioxide; hereinafter, the same values in the Examples). After culturing, the cells were washed twice with physiological phosphate buffer (pH7.4) to prepare samples. Dulbecco's Modified Eagle's Medium/F12 was used as the medium for culturing (hereinafter, unless particularly specified, use of the same medium is assumed).
(§2) The cells described above were stained with propidium iodide (PI) and FITC-conjugated anti-anexin V, and FACS analysis was performed using FACS calibur (Becton Dickinson).
In FIG. 1, “Normoxia” means under normal oxygen partial pressure, and “Hypoxia” means under low oxygen partial pressure (the same hereinafter). The FACS analyses in the Examples can be described as staining of cells with PI and anti-anexin V, and sorting of cells based on the intensity of staining to show distributions such as those in FIG. 1. […]

Test [2] has as its system PCI-43 cells. The test is described as follows: FACS analysis of apoptosis (PI / anti-anexin V staining) under hypoxia and normoxia. The following applies: 50 μg/mL cisplatin, 12 and 24 hours. The method, then: as §1, §2
In FIG. 1, “Normoxia” means under normal oxygen partial pressure, and “Hypoxia” means under low oxygen partial pressure (the same hereinafter). […]
PCI-43 cells were cultured for up to 24 hours under the same conditions as in Example 1. Samples obtained before culturing, and after culturing for 12 hours and 24 hours were analyzed as in Example 1. […]
A general note: Flow cytometry measures light scatter and fluorescence of single cells or particles in a stream.

For test [3], the system named is PCI-43 cells. The test is described as follows: Number of live cells after 48 hours of treatment with anticancer agents (IC50). Particulars: concentration halving the number of live cells. As for the experimental part:
as §1
Using gemcitabine, adriamycin, and cisplatin, and using PCI-43 cells, measurements were made as in Example 1. The concentrations of gemcitabine and adriamycin were 0.1 to 1 μmol and 0.1 to 5 μmol, respectively. IC50 values were calculated from the measured results, as shown below.
The number of live cells was determined after 48 hours of treatment with various concentrations of anticancer agents, and the concentrations of anticancer agents needed to half the number of live cells present when the various anticancer agents were not added were defined as IC50 values.

The next test has as its system Pim-1. The test is described as follows: Western blotting of Pim-1 in cells cultured with a proteasome inhibitor. The following applies: PCI-43 cells, normoxia, 50 μM ALLN, 6 and 12 hours. The method, then: The cells used were HCT116 (colon cancer cell line), HePG2 (liver cancer cell line), KMP-4 (pancreatic cancer cell line), PCI-10 (pancreatic cancer cell line), PCI-35 (pancreatic cancer cell line), and PCI-43 (pancreatic cancer cell line). Each type of cell was cultured for 16 hours under hypoxia (1% oxygen, 5% carbondioxide), or normoxia (20% oxygen, 5% carbondioxide). RNA was extracted from the cultured cells using Trizol reagent, and proteins were extracted from the cultured cells using 1% NP-40 lysis buffer ([…] pH7.5, […], 2 μM EDTA, 1 μM EGTA, 50 μM NaF, 1 μM Na3VO4, 1 mM PMSF).
Proteins were detected by Western blotting. More specifically, the above-mentioned samples were electrophoresed through 12% polyacrylamide gels, and then blotted onto nitrocellulose membranes. The membranes were blocked with blocking buffer (5% skim milk, in physiological Tween-phosphate buffer), reacted with anti-Pim-1 antibody for one hour, then incubated with peroxidase-conjugated goat anti-mouse IgG secondary antibody, and detected using an ECL detection kit (Amersham).
Whether or not Pim-1 is degraded by proteases under normoxia was investigated. PCI-43 cells were cultured under hypoxia and normoxia. Cells cultured under hypoxia were sampled before culturing, and after culturing for 4, 12, and 24 hours. […]
A general note: In western blotting, separated proteins are transferred to a membrane and probed.

Setting [4] is: hypoxia (1% oxygen, 5% carbondioxide), read-out: IC50 (μM), Hypoxia.
Setting [5] is: normoxia (20% oxygen, 5% carbondioxide), read-out: IC50 (μM), Normoxia.

Consider four molecules from patent US7824872B2, “Pharmaceutical agents” (Theravalues Corporation, priority 2003, dated 2010).

What is called IC50 is the concentration needed to halve the response being measured.

Where two headings read alike, the source gives them in different places. Where a SMILES comes first, the peptide text is derived from it. [ ]: non-standard residue; d: D form. Nle = CCCC[C@H](N)C(=O)O

As to `N.N.[Cl][Pt][Cl]` [Cisplatin, cisplatin], in test [1], the “induction of apoptosis under normoxia compared with hypoxia” value is reported as “approximately twice that under hypoxia”. Further, in the test with PCI-43 cells [2], the “proportion of apoptotic cells under hypoxia compared with normoxia” value is “approximately half that under normoxia”. Besides, the IC50 turned out to be 27.7 µM in the test on PCI-43 cells [3] (setting [4]) and 18.6 µM with PCI-43 cells [3] (setting [5]).

In the case of `Nc1ccn([C@@H]2O[C@H](CO)[C@@H](O)C2(F)F)c(=O)n1` [Gemcitabine, gemcitabine], the IC50 amounted to 1.56 µM in the test on PCI-43 cells [3] (setting [4]) and 0.272 µM in the test with PCI-43 cells [3] (setting [5]).

Turning to `CCCC[C@@H](C=O)NC(=O)[C@H](CC(C)C)NC(=O)[C@H](CC(C)C)NC(C)=O` [ALLN, N-acetyl-L-leucinyl-L-leucinyl-L-norleucinal] (Ac-Leu-Leu-[Nle]-aldehyde), in the test with Pim-1, the “amount of Pim-1 (Western blotting)” value is given as “the amount of Pim-1 also increased with time under normoxia”.

For the molecule `COc1cccc2c1C(=O)c1c(O)c3c(c(O)c1C2=O)C[C@@](O)(C(=O)CO)C[C@@H]3O[C@H]1C[C@H](N)[C@H](O)[C@H](C)O1` [Adriamycin, adriamycin], the IC50 in the test on PCI-43 cells [3] (setting [4]) worked out at 1.9 µM; with PCI-43 cells [3] (setting [5]) it was 0.3 µM.
